How the values were obtained:
[1] = tested on: C. difficile (NCTC 11204 and thirty-two clinical isolates); experiment: Minimum Inhibitory Concentration (MIC) against C. difficile, microtiter plate, anaerobic, 48 hours; type: cell-based, Clostridium difficile
Method: (§1) Compounds 4PYcq and 4PYOfi were screened against one NCTC strain and thirty-two clinical isolates of Clostridium difficile as described below.
(§2) The antimicrobial compounds were prepared by adding 5.12 mg of each compound to 1 ml of DMSO. From each solution 100 μl was then aseptically transferred into 1 ml of sterile distilled water to give a concentration of 512 μg/ml. 100 μl of each diluted compound was then added to the first well of a sterile 96-well microliter plate. Serial dilutions were performed to give a concentration range spanning from 0 to 512 μg/ml of each compound. The microtiter plate containing the antimicrobials was left to equilibrate in an anaerobic cabinet for 3 hours before the addition of C. difficile cells. An overnight culture of C. difficile (NCTC 11204) was standardized to an OD^600 of 0.04 (approximately 10^6 CFU/ml), using Wilkins Chalgren broth and was vortexed for 60 seconds to ensure there was a uniform suspension. 100 μl of standardized culture was then added to each well of the microtiter plate, containing the equilibrated antimicrobials. The final concentrations of the antimicrobials in the wells therefore ranged from […] and the concentration of the culture was 10^5 CFU/ml in each well. The microtiter plate was incubated at 37° C., for 48 hours under anaerobic conditions. The MIC was determined as the lowest concentration of antimicrobial agent inhibiting the total growth of C. difficile cells. After incubation, the total solution from each well was aseptically spread onto a separate Wilkins chalgren agar plate. Plates were incubated for 48 hours, at 37° C., under anaerobic conditions. The number of colonies on each plate was counted after incubation and the MBC was determined as the lowest concentration of the antimicrobial agent at which 99.9% of organisms in the original inoculum were killed.

[2] = tested on: C. difficile (NCTC 11204 and thirty-two clinical isolates); experiment: Minimum Bactericidal Concentration (MBC) against C. difficile, 99.9% kill; type: cell-based, Clostridium difficile
Method: as §1, §2

[3] = tested on: Propionibacterium acnes; experiment: MIC against Propionibacterium acnes, microtitre double dilution in BHI; type: cell-based
Method: Compounds 4PYcq and 4PYOfi were screened against one NCTC stain and seven clinical isolates of Propionibacterium acnes as described below.
Bacterial strains of Propionibacterium acnes, stored on beads at −20° C., were plated onto Brain heart infusion (BHI) agar plates. The cultures were incubated anaerobically for 4 days at 37° C.
Bacterial suspensions were prepared by diluting bacterial suspensions with BHI to obtain bacterial concentrations approximately 2×10^6 cfu/ml.
The test antimicrobial compounds were prepared by diluting the compound with appropriate nutrient broth to obtain correct stock solution. 50 μl of BHI were aliquoted onto the wells of the round-bottomed microtitre plate. 50 μl of the antimicrobial compounds were added onto the wells in the first column of the plate and several serial double dilutions were performed along the wells on each row. Following the series of double dilutions of the test compound the bacterial suspension were added onto each well except on the last column which served as a negative control. The lowest concentration of the test compound which inhibited bacterial growth was regarded as MIC of the compound.

[4] = tested on: Acinetobater spp.; experiment: activity against Acinetobacter spp.; type: cell-based; settings: Gram-negative bacterium
[5] = Clostridium difficile Isolate 1
[6] = Clostridium difficile Isolate 2
[7] = Clostridium difficile Isolate 3
[8] = Clostridium difficile Isolate 4
[9] = Clostridium difficile Isolate 5
[10] = Clostridium difficile Isolate 6
[11] = Clostridium difficile Isolate 7
[12] = Clostridium difficile Isolate 8
[13] = Clostridium difficile Isolate 9
[14] = Clostridium difficile Isolate 10
[15] = Clostridium difficile Isolate 11
[16] = Clostridium difficile Isolate 12
[17] = Clostridium difficile Isolate 13
[18] = Clostridium difficile Isolate 14
[19] = Clostridium difficile Isolate 15
[20] = Clostridium difficile Isolate 16
[21] = Clostridium difficile Isolate 17
[22] = Clostridium difficile Isolate 18
[23] = Clostridium difficile Isolate 19
[24] = Clostridium difficile Isolate 20
[25] = Clostridium difficile Isolate 21
[26] = Clostridium difficile Isolate 22
[27] = Clostridium difficile Isolate 23
[28] = Clostridium difficile Isolate 24
[29] = Clostridium difficile Isolate 25
[30] = Clostridium difficile Isolate 26
[31] = Clostridium difficile Isolate 27
[32] = Clostridium difficile Isolate 28
[33] = Clostridium difficile Isolate 29
[34] = Clostridium difficile Isolate 30
[35] = Clostridium difficile Isolate 31
[36] = Clostridium difficile Isolate 32
[37] = Clostridium difficile NCTC 11204

NC(=NN=Cc1ccc([N+](=O)[O-])o1)c1cc[n+]([O-])cc1 (mixture of isomers) [Compound 4PYOfi]
4 to 8 µg/mL: MIC [1, 6] | MIC [1, 26] | MIC [1, 28] | MIC [1, 33] | MIC [1, 35] | MIC [1, 36] | MBC [2, 15] | MBC [2, 16] | MBC [2, 18] | MBC [2, 20] | MBC [2, 24] | MBC [2, 26] | MBC [2, 28]
32 to 64 µg/mL: MIC [1, 11] | MIC [1, 14] | MBC [2, 5] | MBC [2, 11] | MBC [2, 14]
inactive: activity against Acinetobater spp. (in words) [4]
64 to 128 µg/mL: MIC [1, 8] | MIC [1, 17] | MBC [2, 8]
128 to 256 µg/mL: MIC [1, 13] | MBC [2, 13] | MBC [2, 17]
16 to 32 µg/mL: MIC [1, 5] | MIC [1, 10] | MIC [1, 25] | MIC [1, 31] | MIC [1, 32] | MIC [1, 34] | MBC [2, 6] | MBC [2, 10] | MBC [2, 23] | MBC [2, 25] | MBC [2, 31] | MBC [2, 32] | MBC [2, 34] | MIC ([3]; P. acnes Isolate 5) | MIC ([3]; P. acnes NCTC 737)
2 to 4 µg/mL: MIC [1, 9] | MIC [1, 12] | MIC [1, 15] | MIC [1, 16] | MIC [1, 18] | MIC [1, 19] | MIC [1, 20] | MIC [1, 24] | MIC [1, 27] | MIC [1, 29] | MIC [1, 30] | MIC [1, 37] | MBC [2, 9] | MBC [2, 21] | MBC [2, 27] | MBC [2, 30] | MBC [2, 37]
1 to 2 µg/mL: MIC [1, 21] | MIC [1, 22] | MBC [2, 22]
8 to 16 µg/mL: MIC [1, 7] | MIC [1, 23] | MBC [2, 7] | MBC [2, 12] | MBC [2, 19] | MBC [2, 29] | MBC [2, 33] | MBC [2, 35] | MBC [2, 36] | MIC ([3]; P. acnes Isolate 1) | MIC ([3]; P. acnes Isolate 2) | MIC ([3]; P. acnes Isolate 3) | MIC ([3]; P. acnes Isolate 4) | MIC ([3]; P. acnes Isolate 6) | MIC ([3]; P. acnes Isolate 7)

Source: US20080096894A1, “Anti-Bacterial Compounds” (ASTON UNIVERSITY, priority 2005, published 2008)
